One data set concerns HUVEC. Kind of data set: Agonist-enhanced neutrophil adherence to HUVEC. It counts as cell-based, human. The following applies: for Inhibition of TNF-α-enhanced neutrophil adhesion to HUVEC: 20 μmol/l, 1 hr pre-treatment, TNF 4 hr. An outline of the steps: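 HUVEC were pre-treated 60 min at 37° C. with fatty acids (20 μmol/l), stimulated with TNF (125 U/200 μl) for 4 hr, then co-incubated 30 min with neutrophils (5×10^5 cells/well). Adherence expressed as % of control, mean±SEM of three triplicate experiments.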

The nature of data set [1]: Delayed type hypersensitivity (DTH) to sheep erythrocytes. The class given is in vivo, BALB/c mice. The conditions noted are these: 10 mg/kg intraperitoneally prior to antigen challenge. The protocol: (§1) FIG. 14 is a representation showing (A) effect of MP3 on in vivo inflammatory response measured as delayed type hypersensitivity (DTH) to sheep erythrocytes and LPS-induced influx of neutrophils and mononuclear cells in the peritoneal cavity in BALB/c mice. In the DTH experiments mice were injected with sheep erythrocytes subcutaneously, challenged with the antigen in the hind foot pad 6 days later and the amount of foot pad swelling measured 48 hr later. One hour prior to challenge mice were given 10 mg/kg body weight of β-oxa fatty acid in 7% w/v, DMSO as vehicle intraperitoneally. […] The data, expressed as % of control, are presented as mean±SEM of 10 and 5 mice for DTH and peritoneal inflammation, respectively. […] The data, expressed as % of control, are presented as mean±SEM of ten mice per group and is representative of two experimental runs. […]
(§2) Effect of MP3 (β-oxa-23:4n-6) on the in vivo inflammatory response was measured as a delayed type hypersensitivity (DTH) reaction and LPS-induced influx of neutrophils and mononuclear cells in the peritoneal cavity in BALB/c mice. For DTH experiments, mice were injected subcutaneously with 100 μl of 10% hematocrit sheep erythrocytes, challenged with the antigen (25 μl of 40%) in the hind foot pad 6 days later and the degree of foot pad swelling measured 48 hr later (Ferrante et al, Clin. & Exp. Immunol. 38:70-76, 1979). […]

Data set [2] can be described thus: LPS-induced influx of neutrophils and mononuclear cells in the peritoneal cavity. It counts as in vivo, BALB/c mice. The following applies: 40 mg/kg intravenously, 6 hr before LPS. The method, then: as §1, §2
The test system of the next data set is E-selectin. In words: LPS-induced E-selectin expression in aortic endothelium. The class given is in vivo, BALB/c mice. The following applies: intravenous, 2 hr before LPS, aortas after 5 hr. The method, then: FIG. 14 is a representation showing (A) effect of MP3 on in vivo inflammatory response measured as delayed type hypersensitivity (DTH) to sheep erythrocytes and LPS-induced influx of neutrophils and mononuclear cells in the peritoneal cavity in BALB/c mice. In the DTH experiments mice were injected with sheep erythrocytes subcutaneously, challenged with the antigen in the hind foot pad 6 days later and the amount of foot pad swelling measured 48 hr later. One hour prior to challenge mice were given 10 mg/kg body weight of β-oxa fatty acid in 7% w/v, DMSO as vehicle intraperitoneally. For the peritoneal cavity inflammation, mice were given intravenously 40 mg/kg MP3 intravenously and 6 hr later injected with LPS intraperitoneally. The cellular infiltrates were examined 24 and 72 hr later. The data, expressed as % of control, are presented as mean±SEM of 10 and 5 mice for DTH and peritoneal inflammation, respectively. […] The data, expressed as % of control, are presented as mean±SEM of ten mice per group and is representative of two experimental runs. […]
The LPS-induced expression of E-selectin in the aortic endothelium of BALB/c mice was determined following injection of 50 μg LPS intraperitoneally and aortas encompassing the ascending part of the aortic arch through to the bifurcation to the common iliac arteries isolated after 5 hr. […]

Data set [3] can be described thus: Tolerability of intravenous MP3. It counts as in vivo, mice. The following applies: 50 mg/kg intravenously, 4 days. The text has this: In accordance with the present invention, a novel engineered polyunsaturated fatty acid, β-oxa-23:4n-6 (MP3) (FIG. 5) is identified which has the hall-marks of a new class of pharmaceuticals based on polyunsaturated fatty acids and which can be used to prevent and/or treat cardiovascular disease. […] The focus of this embodiment of the subject invention is, therefore, the efficacy of MP3 at suppressing adhesion molecule expression in vivo and the development of atherosclerosis.

SMILES strings stand for the structures. A value given as a limit tells only on which side of the number the result lay.

Regarding `CCCCC/C=C\C/C=C\C/C=C\C/C=C\CCCCOCC(=O)O` [MP3, β-oxa-23:4n-6], the “Inhibition of LPS- or PMA-induced neutrophil adhesion to HUVEC” value with HUVEC is reported as “inhibited the increase in neutrophil adhesion”. The results for the “Inhibition of TNF-α-enhanced neutrophil adhesion to HUVEC” value in the data set on HUVEC, in the data set on HUVEC (listed as β-oxa 23:4n-6) and in the data set with HUVEC (listed as β-oxa-23:4n-6) were “greatest suppression”, “most active” and “inhibited their ability to be stimulated”, respectively. For the same molecule, in the data set with HUVEC (pre-treatment time of 1 hr), the “Concentration with significant suppression of TNF-α-induced neutrophil adhesion” value was no less than 5 µmol/L. Also, the “Delayed type hypersensitivity reaction (foot pad swelling)” value in data set [1] was “inhibited in ability to manifest a delayed type hypersensitivity reaction”. Also, the “LPS-induced mononuclear cell infiltrate (72 hr)” value in data set [2] was “inhibition of the mononuclear cell infiltrate after 72 hr”. Also, the “LPS-induced neutrophil influx (24 hr)” value in data set [2] is listed as “inhibited the neutrophil influx”. Moreover, the “LPS-induced E-selectin expression in aortic endothelium” value is given as “effective in vivo at suppressing LPS-stimulated up-regulation of E-selectin expression” in the data set with E-selectin and “significant reduction in LPS-induced E-selectin expression” with E-selectin (listed as β-oxa-23:4n-6). The “Observable signs of distress” value in data set [3] is listed as “did not cause any observable signs of distress”.
